Assay results reported in patent USRE37781E1, “Substituted cyclic carbonyls and derivatives thereof useful as retroviral protease inhibitors” (DuPont Pharmaceuticals Company, priority 1991, dated 2002).

Key:
Solubility studies = type: physicochemical; settings: 0.1M citric acid; method A (visually)
Method: For compounds of the present invention having reduceded water solubility it may be advantageous to prepare prodrugs to enhance the solubility and bioavailability of these compounds. […] Solubility studies were performed by mixing an excess of solid compound in water or aqueous medium for at least 4 hours. Solubility was assessed either visually, if a weighed amount clearly dissolved in a measured volume of solvent (method A), or by HPLC assay of filtrates of saturated solutions (method B).

[1] = Hydrolysis of prodrugs to 5U in biological fluids in vitro; type: in vitro ADME; settings: exposed to plasma or intestinal enzymes in vitro, 37° C.
Method: Compounds 29A-29E are hydrolyzed to parent compound 5U in biological fluids in vitro. This was shown as follows. Plasma was collected from rats, dogs, or human volunteer, and was used within 24 hours. […] After various times of incubation at 37° C., the hydrolysis reaction was quenched with the addition of an organic solvent. The organic solvent was used for extraction of 5U, and concentrations of 5U in the plasma aliquots were determined using HPLC after extraction. Concentrations of 5U were thus measured vs. time of incubation of the prodrug in plasma at 37° C. Similar studies were performed using a homogenate of rat intestinal tissue (10% w/v) as the hydrolysis medium. Results for in vitro hydrolysis of prodrug 29B in dog plasma and rat intestinal homogenate (10% w/v) are given in Table B. Results for in vitro hydrolysis of prodrug 29C in rat, dog and human plasma are given in Table C. […] Other salt forms of these compounds, such as prodrugs 29A and 29D, will be similar to their free acid or free base forms.

[2] = Oral bioavailability studies in fasted beagle dogs; type: in vivo; settings: oral, plasma treated with NaOH
Method: Improved water solubility can result in increasing the extent of oral bioavailability. Oral bioavailability studies were performed in fasted beagle dogs. Compounds were dosed orally using a solution vehicle or the solid drug powder filled into hard gelatin capsules. Periodic blood samples were taken from each dog and plasma was separated. Plasma drug concentrations were determined using extraction and HPLC analysis. Generally, after the administration of 5U or its prodrugs 29A-E, the plasma concentrations of 5U were determined, rather than unchanged prodrug concentrations. […] Oral bioavailability is expressed as the percentage of the oral dose absorbed. […] Therefore, in order to attain improved oral bioavailability, 5U was administered using a solution with polyethylene glycol 400 or propylene glycol as the vehicle. […] Improved oral bioavailability was attained when the water soluble prodrugs were administered in the solid form, with no added excipients or solvents. […] The advantage of the water soluble prodrugs is especially clear at high doses. […] Samples were then extracted again and assayed for 5U concentration. […] Thus, plasma levels of both intact prodrug and hydrolysis product can be attained using these water soluble prodrugs.

CN(C)CC(=O)OCc1ccc(CN2C(=O)N(Cc3ccc(COC(=O)CN(C)C)cc3)[C@H](Cc3ccccc3)[C@H](O)[C@@H](O)[C@H]2Cc2ccccc2)cc1 [Example 29C]
Solubility (Solubility studies): >20 mg/mL
conversion of prodrug to parent 5U [1]: readily convert to parent 5U

CN(C)CC(=O)OCc1ccc(CN2C(=O)N(Cc3ccc(COC(=O)CN(C)C)cc3)[C@H](Cc3ccccc3)[C@H](O)[C@@H](O)[C@H]2Cc2ccccc2)cc1.Cl [Example 29E]
conversion of prodrug to parent 5U [1]: readily convert to parent 5U
AUC of intact esters (total of mono and bis ester) relative to that of 5U [2]: approximately 2 fold
